Two compounds from patent US20020040011A1, “Naphthoquinone compositions and uses thereof” (priority 2000, published 2002) can be followed below.

SMILES strings stand for the structures.

The test system of this assay is murine fibrosarcomas (RIF-1 cells). Put plainly: Chemopotentiation of cisplatin by menadione: tumor growth delay of RIF-1 fibrosarcomas in C3H mice. The note with it: for Median (TVQT) / TVQT ± S.E. (mean tumor volume quadrupling time) / TVQT/CTVQT (ratio of treated over untreated control): intradermal RIF-1 tumors, female C3H mice; for Median (TVQT) / TVQT ± S.E. (mean tumor volume quadrupling time) / TVQT/CTVQT (ratio of treated over untreated control) / Delay: i.p., menadione 10 mg/kg, cisplatin 4 mg/kg, combination: menadione 30 min before cisplatin; for Delay: median treated minus median control, RIF-1 tumors, C3H mice. It is filed as in vivo. As to the method:
Transplantable experimental murine fibrosarcomas (2×10^5 RIF-1 cells) were grown intradermally in the flanks of 3 month old female C3H mice (Charles River, Holister, Calif.). When the tumors reached a volume of approximately 100 mm^3, the mice were randomly assigned to each experimental group (4 mice per group). The experimental compositions were prepared as described in Table 1. Menadione was obtained from Sigma Chemical Co. (St. Louis, Mo.) and was made to the appropriate concentration in DMSO. Cisplatin (David Bull Laboratories- Mulgrave, Australia, lot. 5201844x) was made to the appropriate concentration in water for injection. The compositions were injected systemically (i.e., intraperitoneally, i.p.), in a volume of 100 microliters. For the treatment of group 3, menadione was injected 30 minutes prior to the injection of cisplatin. After treatment, the growth of the tumors was monitored three times per week by caliper measurements of three perpendicular diameters of the tumor and calculation of tumor volume from the formula: V=π/6×D1×D2×D3, where D1-3 are the diameters in mm along the three different perpendicular axes. The tumors were followed until they reached a size of four times their day zero treatment volume (TVQT), or up to 30 days after treatment, whichever came first. The data is expressed as the “tumor volume quadrupling time” (TVQT) mean and as the “delay.” Mean TVQT is the mean days required for individual tumors to grow to four times the tumor volume at the initial treatment day. The “delay” is the median of days required for a tumor to grow to four times the mean size of the treated group, minus the median of days required to grow to four times the mean size of the control group. The data is also expressed as the ratio of the tumor volume quadrupling time of the treated tumor over the untreated control group ([…]). Increasing values of this ratio indicate increased antitumor response.

In the case of `N.N.[Cl][Pt][Cl]` [Cisplatin, cis-diamminedichloroplatinum II], the “Median (TVQT)” value worked out at 8.3 days, the “TVQT ± S.E. (mean tumor volume quadrupling time)” value was determined as 8.4 ± 0.3 days, the “TVQT/CTVQT (ratio of treated over untreated control)” value came out at 1.3 and the “Delay” value turned out to be 1.44 days. Moreover, the “antiproliferative activity of cisplatin when used with the chemopotentiator menadione” value (group 3 (menadione 10 mg/kg then cisplatin 4 mg/kg) versus either agent alone, more than additive effect) is “enhanced”.
On to `CC1=CC(=O)c2ccccc2C1=O` [Menadione, 2-Methyl-1,4-Naphthoquinone], for which the “Median (TVQT)” value is 7.5 days, the “TVQT ± S.E. (mean tumor volume quadrupling time)” value stood at 7.0 ± 0.5 days, the “TVQT/CTVQT (ratio of treated over untreated control)” value is reported as 1.0 and the “Delay” value came to 0.61 days.
